Measured values from the supplement of paper PMC10307832.

Columns and labels:
Test in all cases: relative viability (nuclei count vs DMSO), 5 days (fraction); higher = more cells survive
Bortezomib + AZD7762 = compound: CC(C)C[C@H](NC(=O)[C@H](Cc1ccccc1)NC(=O)c1cnccn1)B(O)O [Bortezomib] + NC(=O)Nc1cc(-c2cccc(F)c2)sc1C(=O)N[C@H]1CCCNC1 [AZD7762] (partner 0.2 µM)
Summary of the method: (§1)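 Relative viability was taken as the ratio of nuclei in treated wells to nuclei in vehicle wells. Lung cancer cell lines in 1536-well plates received compounds by pin tool one day after seeding, either one drug alone or a fixed anchor-drug dose plus five library-drug doses (not always all listed) in √10 steps. Nuclei were counted on 4× images after 5 days of treatment, and values are medians of duplicate plates.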

[1] = compound: CC1=CC(=NN1)NC2=CC(=NC(=N2)/C=C/C3=CC=CC=C3)N4CCN(CC4)C + COc1cc2c(Oc3ccc(NC(=O)C4(C(=O)Nc5ccc(F)cc5)CC4)cc3F)ccnc2cc1OCCCN1CCOCC1 [Foretinib] (partner 0.25 µM)
Summary of the method: as §1

[2] = compound: CC1=CC(=NN1)NC2=CC(=NC(=N2)/C=C/C3=CC=CC=C3)N4CCN(CC4)C + O=C(c1cc(Cc2n[nH]c(=O)c3ccccc23)ccc1F)N1CCN(C(=O)C2CC2)CC1 [Olaparib] (partner 8 µM)
Summary of the method: as §1

Obatoclax + AZD7762 = compound: COC1=CC(c2cc3ccccc3[nH]2)=N/C1=C\c1[nH]c(C)cc1C [Obatoclax] + NC(=O)Nc1cc(-c2cccc(F)c2)sc1C(=O)N[C@H]1CCCNC1 [AZD7762] (partner 0.2 µM)
Summary of the method: as §1

NCI-H650
relative viability (Bortezomib + AZD7762; first compound 0.0002 µM): 0.949
relative viability (Bortezomib + AZD7762; first compound 0.000632 µM): 1.08
relative viability (Bortezomib + AZD7762; first compound 0.002 µM): 0.95
relative viability (Bortezomib + AZD7762; first compound 0.006325 µM): 0.942
relative viability (Bortezomib + AZD7762; first compound 0.02 µM): 0.289
relative viability ([1]; first compound 0.253 µM): 1.14
relative viability ([1]; first compound 0.8 µM): 1.01
relative viability ([1]; first compound 2.53 µM): 0.923
relative viability ([1]; first compound 8 µM): 0.255
relative viability ([2]; first compound 0.08 µM): 0.376
relative viability ([2]; first compound 0.253 µM): 0.431
relative viability ([2]; first compound 0.8 µM): 0.416
relative viability ([2]; first compound 2.53 µM): 0.344
relative viability ([2]; first compound 8 µM): 0.136
relative viability (Obatoclax + AZD7762; first compound 0.01 µM): 0.998
relative viability (Obatoclax + AZD7762; first compound 0.03162 µM): 0.925
relative viability (Obatoclax + AZD7762; first compound 0.3162 µM): 0.513
relative viability (Obatoclax + AZD7762; first compound 1 µM): 0.324
